In ChEMBL document CHEMBL1201862, “PubChem BioAssay data set” (2004):
Active and inactive are the calls of the source.

Assays:
Type in all cases: functional
[1] = molecular target: T1, Kappa-type opioid receptor (Homo sapiens, UniProt P41145); test: KOR agonist analogs, arrestin-GFP redistribution, SAR follow-up, imaging, image-based, set 3 (AID 488833)
[2] = molecular target: Delta-type opioid receptor (Homo sapiens, UniProt P41143); test: SAR Analysis of Agonists of the DOR Receptor using an Image-Based Assay - Set 3. [Related pubchem assays (depositor defined):AID1777, AID1786]
[3] = molecular target: Mu-type opioid receptor (Homo sapiens, UniProt P35372); test: SAR Analysis of Agonists of the MOR Receptor using an Image-Based Assay - Set 3. [Related pubchem assays (depositor defined):AID1777, AID1785, AID1786, AID1966, AID2133, AID2136, AID2284, AID2285, AID2352]
[4] = molecular target: T1, Kappa-type opioid receptor; test: SAR analysis of small molecule agonists of the kappa opioid receptor via a luminescent beta-arrestin assay - Set 3. [Related pubchem assays (depositor defined):AID1777, AID1785, AID1786, AID1966, AID2133, AID2136, AID2284, AID2500]
[5] = molecular target: T2, Ubiquitin-conjugating enzyme E2 N (Homo sapiens, UniProt P61088)
T2 sequence (P61088 whole entry): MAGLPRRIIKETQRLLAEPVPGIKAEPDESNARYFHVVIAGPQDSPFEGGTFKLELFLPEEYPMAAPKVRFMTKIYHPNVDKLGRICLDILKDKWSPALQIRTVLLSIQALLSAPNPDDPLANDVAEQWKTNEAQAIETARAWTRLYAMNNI

[6] = molecular target: T3, Bcl-2-related protein A1 (Mus musculus, UniProt Q07440);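 also: confirmatory dose–response counterscreen on Bfl-1, used to check hits from a UBC13 polyubiquitin inhibitor campaign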
T3 sequence (Q07440 whole entry): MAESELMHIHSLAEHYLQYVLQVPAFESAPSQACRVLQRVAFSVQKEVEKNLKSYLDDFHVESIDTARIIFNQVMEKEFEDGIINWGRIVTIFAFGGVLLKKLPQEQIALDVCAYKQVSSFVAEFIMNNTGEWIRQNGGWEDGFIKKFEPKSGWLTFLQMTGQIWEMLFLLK

[7] = molecular target: T2, Ubiquitin-conjugating enzyme E2 N; remark: listed apart in the source

T1 sequence (P41145 whole entry): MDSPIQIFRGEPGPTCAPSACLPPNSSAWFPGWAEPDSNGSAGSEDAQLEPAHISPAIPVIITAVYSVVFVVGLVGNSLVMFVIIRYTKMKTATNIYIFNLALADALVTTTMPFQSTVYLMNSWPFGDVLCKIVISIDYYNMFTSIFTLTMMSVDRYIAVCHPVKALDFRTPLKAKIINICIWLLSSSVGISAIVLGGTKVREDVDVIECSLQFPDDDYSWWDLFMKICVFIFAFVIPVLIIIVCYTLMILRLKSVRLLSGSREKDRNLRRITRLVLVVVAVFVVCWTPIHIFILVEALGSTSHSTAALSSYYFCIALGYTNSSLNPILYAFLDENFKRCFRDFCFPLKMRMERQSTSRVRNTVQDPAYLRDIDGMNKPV
Sequence of Mu-type opioid receptor (P35372 whole entry): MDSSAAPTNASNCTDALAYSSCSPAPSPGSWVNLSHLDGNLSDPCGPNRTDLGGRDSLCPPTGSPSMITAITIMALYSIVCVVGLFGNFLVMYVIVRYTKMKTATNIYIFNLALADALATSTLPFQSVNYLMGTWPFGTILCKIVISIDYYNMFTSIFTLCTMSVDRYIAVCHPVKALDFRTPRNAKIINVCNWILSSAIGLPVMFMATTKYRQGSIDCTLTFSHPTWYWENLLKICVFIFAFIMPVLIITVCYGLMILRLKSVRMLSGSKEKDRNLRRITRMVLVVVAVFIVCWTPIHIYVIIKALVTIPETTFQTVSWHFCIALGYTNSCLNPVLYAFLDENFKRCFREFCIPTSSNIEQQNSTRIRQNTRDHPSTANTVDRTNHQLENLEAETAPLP
Sequence of Delta-type opioid receptor (P41143 whole entry): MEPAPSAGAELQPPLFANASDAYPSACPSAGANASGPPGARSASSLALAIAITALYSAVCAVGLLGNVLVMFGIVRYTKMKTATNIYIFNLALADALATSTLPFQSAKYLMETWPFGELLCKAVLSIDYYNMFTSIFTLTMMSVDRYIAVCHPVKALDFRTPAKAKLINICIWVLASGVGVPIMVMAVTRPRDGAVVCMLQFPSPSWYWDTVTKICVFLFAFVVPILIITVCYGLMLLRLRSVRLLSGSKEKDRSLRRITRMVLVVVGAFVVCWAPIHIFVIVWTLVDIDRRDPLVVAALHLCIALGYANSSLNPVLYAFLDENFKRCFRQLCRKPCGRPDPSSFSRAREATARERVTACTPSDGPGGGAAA

EC50 [1]	EC50 [2]	EC50 [3]	EC50 [4]	IC50 [5]	IC50 [6]	IC50 [7]	Structure (SMILES)
0.956 µM (active)	> 64 µM (inactive)	> 32 µM (inactive)	1.24 µM (active)	–	–	–	O=[N+]([O-])c1ccc(CSc2nnc(-c3ccccn3)n2Cc2cccs2)cc1
–	–	–	–	5.26 µM (active)	> 20 µM (inactive)	18.1 µM (active)	CCCCN(CC)CCNC(=O)c1cc2c(=O)n(CC)c3ccccc3c2s1
